Experimental findings from US10212936B2, “Molecules having pesticidal utility, and intermediates, compositions, and processes, related thereto” (priority 2014, dated 2019) are described below.

What all share (format): in vivo
For data set [1], the system named is Beet Armyworm (Spodoptera exigua, LAPHEG). The experiment in a line: Bioassay on Beet Armyworm (BAW), 128-well diet tray assay. The following applies: 168 h, 50 μg/cm^2 on artificial diet, second instar larvae, five to seven days, 25° C., read-out: BAW % Control (or Mortality) rating. The procedure:
(§1) Example A: Bioassays on Beet Armyworm (Spodoptera exigua, LAPHEG) (“BAW”), Corn Earworm (Helicoverpa zea, HELIZE) (“CEW”), and Cabbage Looper (Trichoplusia ni, TRIPNI) (“CL”)
(§2) Certain molecules disclosed in this document were tested against BAW, CEW, and CL using procedures described in the following examples. In the reporting of the results, the “BAW, CEW, & CL Rating Table” was used (See Table Section).
Bioassays on BAW were conducted using a 128-well diet tray assay. one to five second instar BAW larvae were placed in each well (3 mL) of the diet tray that had been previously filled with 1 mL of artificial diet to which 50 μg/cm^2 of the test molecule (dissolved in 50 μL of 90:10 acetone-water mixture) had been applied (to each of eight wells) and then allowed to dry. Trays were covered with a clear self-adhesive cover and held at 25° C., 14:10 light-dark for five to seven days. Percent mortality was recorded for the larvae in each well; activity in the eight wells was then averaged. The results are indicated in the table entitled “Table ABC: Biological Results” (See Table Section).

Data set [2] relates to Cabbage Looper (Trichoplusia ni, TRIPNI). The experiment in a line: Bioassay on Cabbage Looper (CL), 128-well diet tray assay. The following applies: 168 h, 50 μg/cm^2 on artificial diet, second instar larvae, five to seven days, 25° C., read-out: CL % Control (or Mortality) rating. The procedure: as §1, §2
Bioassays on CL were conducted using a 128-well diet tray assay. one to five second instar CL larvae were placed in each well (3 mL) of the diet tray that had been previously filled with 1 mL of artificial diet to which 50 μg/cm^2 of the test molecule (dissolved in 50 μL of 90:10 acetone-water mixture) had been applied (to each of eight wells) and then allowed to dry. Trays were covered with a clear self-adhesive cover and held at 25° C., 14:10 light-dark for five to seven days. Percent mortality was recorded for the larvae in each well; activity in the eight wells was then averaged. The results are indicated in the table entitled “Table ABC: Biological Results” (See Table Section).

Data set [3] has as its system Corn Earworm (Helicoverpa zea, HELIZE). The experiment in a line: Bioassay on Corn Earworm (CEW), 128-well diet tray assay. The following applies: 168 h, 50 μg/cm^2 on artificial diet, second instar larvae, five to seven days, 25° C., read-out: CEW % Control (or Mortality) rating. The procedure:
as §1, §2
Bioassays on CEW were conducted using a 128-well diet tray assay. one to five second instar CEW larvae were placed in each well (3 mL) of the diet tray that had been previously filled with 1 mL of artificial diet to which 50 μg/cm^2 of the test molecule (dissolved in 50 μL of 90:10 acetone-water mixture) had been applied (to each of eight wells) and then allowed to dry. Trays were covered with a clear self-adhesive cover, and held at 25° C., 14:10 light-dark for five to seven days. Percent mortality was recorded for the larvae in each well; activity in the eight wells was then averaged. The results are indicated in the table entitled “Table ABC: Biological Results” (See Table Section).

For data set [4], the system named is Yellow Fever Mosquito (Aedes aegypti, AEDSAE). The experiment in a line: Bioassay on Yellow Fever Mosquito (YFM) larvae, 96-well plate. The settings on record: about 1 day-old larvae, 4000 ppm DMSO master plate diluted, graded after 3 days. How it is done:
Example C: Bioassays on Yellow Fever Mosquito (Aedes aegypti, AEDSAE) (“YFM”)
Certain molecules disclosed in this document were tested against YFM using procedures described in the following paragraph. In the reporting of the results, the “YFM Rating Table” was used (See Table Section).
Master plates containing 400 μg of a molecule dissolved in 100 μL of dimethyl sulfoxide (DMSO) (equivalent to a 4000 ppm solution) are used. A master plate of assembled molecules contains 15 μL per well. To this plate, 135 μL of a 90:10 water:acetone mixture is added to each well. A robot (Biomek® NXP Laboratory Automation Workstation) is programmed to dispense 15 μL aspirations from the master plate into an empty 96-well shallow plate (“daughter” plate). There are 6 reps (“daughter” plates) created per master. The created daughter plates are then immediately infested with YFM larvae.
The day before plates are to be treated, mosquito eggs are placed in Millipore water containing liver powder to begin hatching (4 g. into 400 mL). After the daughter plates are created using the robot, they are infested with 220 μL of the liver powder/larval mosquito mixture (about 1 day-old larvae). After plates are infested with mosquito larvae, a non-evaporative lid is used to cover the plate to reduce drying. Plates are held at room temperature for 3 days prior to grading. After 3 days, each well is observed and scored based on mortality. The results are indicated in the table entitled “Table ABC: Biological Results” (See Table Section).

SMILES strings stand for the structures.

With `CC(C)c1cccc(-n2ccnc2NC(=O)Nc2ccc(-c3ncn(-c4ccc(OC(F)(F)F)cc4)n3)cc2)c1` [F25, 1-(1-(3-Isopropylphenyl)-1H-imidazol-2-yl)-3-(4-(1-(4-(trifluoromethoxy)phenyl)-1H-1,2,4-triazol-3-yl)phenyl)urea], the mortality at 50 µg/cm2 in data set [1], in data set [2] and in data set [3] was 50 to 100% in each case.

As to `CCc1cccc(-n2ccnc2NC(=O)Nc2ccc(-c3ncn(-c4ccc(OC(F)(F)F)cc4)n3)cc2)c1` [F26, 1-(1-(3-Ethylphenyl)-1H-imidazol-2-yl)-3-(4-(1-(4-(trifluoromethoxy)phenyl)-1H-1,2,4-triazol-3-yl)phenyl)urea], the mortality at 50 µg/cm2 in data set [1], in data set [2] and in data set [3] was 50 to 100% throughout.

`Cc1cccc(-n2ccnc2NC(=O)Nc2ccc(-c3ncn(-c4ccc(OC(F)(F)F)cc4)n3)cc2)c1` [F24, 1-(1-(m-Tolyl)-1H-imidazol-2-yl)-3-(4-(1-(4-(trifluoromethoxy)phenyl)-1H-1,2,4-triazol-3-yl)phenyl)urea]: the mortality at 50 µg/cm2 in data set [1], in data set [2] and in data set [3] was 50 to 100% throughout.

As for `O=C(Nc1ccc(-c2ncn(-c3ccc(OC(F)(F)F)cc3)n2)cc1)Nc1nccn1-c1cccc(Cl)c1` [F27, 1-(1-(3-Chlorophenyl)-1H-imidazol-2-yl)-3-(4-(1-(4-(trifluoromethoxy)phenyl)-1H-1,2,4-triazol-3-yl)phenyl)urea], the mortality at 50 µg/cm2 in data set [1], in data set [2] and in data set [3] was 50 to 100% throughout.

As to `O=C(Nc1ccc(-c2ncn(-c3ccc(OC(F)(F)F)cc3)n2)cc1)Nc1nccn1-c1ccncc1` [F33, 1-(1-(Pyridin-4-yl)-1H-imidazol-2-yl)-3-(4-(1-(4-(trifluoromethoxy)phenyl)-1H-1,2,4-triazol-3-yl)phenyl)urea], the mortality at 50 µg/cm2 in data set [1], in data set [2] and in data set [3] was 50 to 100% throughout.

Take `O=C(Nc1ccc(-c2ncn(-c3ccc(OC(F)(F)F)cc3)n2)cc1)Nc1nccn1-c1ccccn1` [F31, 1-(1-(Pyridin-2-yl)-1H-imidazol-2-yl)-3-(4-(1-(4-(trifluoromethoxy)phenyl)-1H-1,2,4-triazol-3-yl)phenyl)urea]: the mortality at 50 µg/cm2 in data set [1], in data set [2] and in data set [3] was 50 to 100% throughout.

As for `Cc1ccccc1-n1ccnc1NC(=O)Nc1ccc(-c2ncn(-c3ccc(OC(F)(F)F)cc3)n2)cc1` [F21, 1-(1-(o-Tolyl)-1H-imidazol-2-yl)-3-(4-(1-(4-(trifluoromethoxy)phenyl)-1H-1,2,4-triazol-3-yl)phenyl)urea], the mortality at 50 µg/cm2 in data set [1], in data set [2] and in data set [3] was 50 to 100% each time.

As for `COc1cccc(-n2ccnc2NC(=O)Nc2ccc(-c3ncn(-c4ccc(OC(F)(F)F)cc4)n3)cc2)c1` [F23, 1-(1-(3-Methoxyphenyl)-1H-imidazol-2-yl)-3-(4-(1-(4-(trifluoromethoxy)phenyl)-1H-1,2,4-triazol-3-yl)phenyl)urea], the mortality at 50 µg/cm2 in data set [1], in data set [2] and in data set [3] was 50 to 100% throughout.

Regarding `O=C(Nc1ccc(-c2ncn(-c3ccc(OC(F)(F)F)cc3)n2)cc1)Nc1nccn1-c1ccccc1` [F20, 1-(1-Phenyl-1H-imidazol-2-yl)-3-(4-(1-(4-(trifluoromethoxy)phenyl)-1H-1,2,4-triazol-3-yl)phenyl)urea], the mortality at 50 µg/cm2 in data set [1], in data set [2] and in data set [3] was 50 to 100% in each case.

`COc1ccc(-n2ccnc2NC(=O)Nc2ccc(-c3ncn(-c4ccc(OC(F)(F)F)cc4)n3)cc2)cc1` [F30, 1-(1-(4-Methoxyphenyl)-1H-imidazol-2-yl)-3-(4-(1-(4-(trifluoromethoxy)phenyl)-1H-1,2,4-triazol-3-yl)phenyl)urea]: the mortality at 50 µg/cm2 in data set [1], in data set [2] and in data set [3] was 50 to 100% throughout.

Regarding `CCc1ccccc1-c1ncsc1NC(=O)NCCc1ccc(-c2ncn(-c3ccc(OC(F)(F)F)cc3)n2)cc1` [F61, 1-(4-(2-ethylphenyl)thiazol-5-yl)-3-(4-(1-(4-(trifluoromethoxy)phenyl)-1H-1,2,4-triazol-3-yl)phenethyl)urea], the mortality – broadly, the share of the test organisms that died – at 50 µg/cm2 in data set [1] is 0%; in data set [2], 50 to 100%. Moreover, the “YFM % Control (or Mortality) rating” value in data set [4] is “A (80-100)”.

Turning to `Cn1oc(NC(=O)NCCc2ccc(-c3ncn(-c4ccc(OC(F)(F)F)cc4)n3)cc2)c(-c2c(Cl)cccc2Cl)c1=O` [F60, 1-(4-(2,6-Dichlorophenyl)-2-methyl-3-oxo-2,3-dihydroisoxazol-5-yl)-3-(4-(1-(4-(trifluoromethoxy)phenyl)-1H-1,2,4-triazol-3-yl)phenethyl)urea], the mortality at 50 µg/cm2 in data set [1] and in data set [2] was 50 to 100% throughout. Moreover, in data set [4], the “YFM % Control (or Mortality) rating” value is “A (80-100)”.

As for `CCOC(=O)c1c(C)csc1NC(=O)Nc1ccc(-c2ncn(-c3ccc(OC(F)(F)F)cc3)n2)cc1` [F1, ethyl 4-methyl-2-(3-(4-(1-(4-(trifluoromethoxy)phenyl)-1H-1,2,4-triazol-3-yl)phenyl)ureido)thiophene-3-carboxylate], the mortality at 50 µg/cm2 in data set [1] and in data set [2] was 0% each time. Also, the “YFM % Control (or Mortality) rating” value in data set [4] is recorded as “D (No activity noticed in this bioassay)”.

Regarding `O=C(NCCc1ccc(-c2ncn(-c3ccc(OC(F)(F)F)cc3)n2)cc1)NC1=C(c2c(Cl)cccc2Cl)C(=O)CO1` [F54, 1-(3-(2,6-Dichlorophenyl)-4-oxo-4,5-dihydrofuran-2-yl)-3-(4-(1-(4-(trifluoromethoxy)phenyl)-1H-1,2,4-triazol-3-yl)phenethyl)urea], the mortality at 50 µg/cm2 in data set [1] and in data set [2] was 0% throughout. Also, the “YFM % Control (or Mortality) rating” value in data set [4] is listed as “A (80-100)”.

As for `Cc1cccc(C)c1C1=C(NC(=O)NCCc2ccc(-c3ncn(-c4ccc(OC(F)(F)F)cc4)n3)cc2)OCC1=O` [F55, 1-(3-(2,6-Dimethylphenyl)-4-oxo-4,5-dihydrofuran-2-yl)-3-(4-(1-(4-(trifluoromethoxy)phenyl)-1H-1,2,4-triazol-3-yl)phenethyl)urea], the mortality at 50 µg/cm2 in data set [1] was 50 to 100%; in data set [2], 0%. Also, in data set [4], the “YFM % Control (or Mortality) rating” value is recorded as “A (80-100)”.

Turning to `COc1ccc(-c2ncsc2NC(=O)Nc2ccc(-c3ncn(-c4ccc(OC(F)(F)F)cc4)n3)cc2)c(C)c1` [F46, 1-(4-(4-Methoxy-2-methylphenyl)thiazol-5-yl)-3-(4-(1-(4-(trifluoromethoxy)phenyl)-1H-1,2,4-triazol-3-yl)phenyl)urea], the mortality at 50 µg/cm2 in data set [1] and in data set [2] was 50 to 100% throughout. Further, the “YFM % Control (or Mortality) rating” value in data set [4] is “A (80-100)”.
